“And” between values parts separate entries of the source, which are not always exact repeats. Equal entries are not always repeated.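 Dose response: 5 concentrations. Exposure: 48 h. Format: 96-well plates. Endpoint: linear interpolation; highest concentration if not reached. GI50 marks 50% less growth. At the TGI there is no net growth.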
Key:
Experiment in all cases: inhibition of tumour cell growth, NCI panel, 48 h
MOLT-4 leukemia = system: MOLT-4 leukemia
KM12 colon = system: KM12 colon
NCI-H23 lung = system: NCI-H23 lung
SR leukemia = system: SR leukemia
EKVX NSCLC = system: EKVX NSCLC
HCC-2998 colon = system: HCC-2998 colon
NCI-H522 lung = system: NCI-H522 lung
ACHN renal = system: ACHN renal
CCRF-CEM leukemia = system: CCRF-CEM leukemia
UACC-62 melanoma = system: UACC-62 melanoma

| Compound | GI50 (MOLT-4 leukemia) | TGI (MOLT-4 leukemia) | GI50 (KM12 colon) | TGI (KM12 colon) | GI50 (NCI-H23 lung) | TGI (NCI-H23 lung) | GI50 (SR leukemia) | TGI (SR leukemia) | GI50 (EKVX NSCLC) | TGI (EKVX NSCLC) | GI50 (HCC-2998 colon) | TGI (HCC-2998 colon) | GI50 (NCI-H522 lung) | TGI (NCI-H522 lung) | GI50 (ACHN renal) | TGI (ACHN renal) | GI50 (CCRF-CEM leukemia) | TGI (CCRF-CEM leukemia) | GI50 (UACC-62 melanoma) | TGI (UACC-62 melanoma) |
| --- | --- | --- | --- | --- | --- | --- | --- | --- | --- | --- | --- | --- | --- | --- | --- | --- | --- | --- | --- | --- |
| CCCc1n(Cc2ccc3ccccc3c2)cc[n+]1Cc1ccc2ccccc2c1 | 1.46 µM | 4.07 µM | 1.01 µM | 2.38 µM | 0.521 µM | 2.51 µM | 0.597 µM | 2.62 µM | 1.71 µM | 11.4 µM | 0.716 µM | 2.07 µM | 0.378 µM | 1.69 µM | 3.87 µM | 14.2 µM | 1.48 µM | 4.93 µM | 0.647 µM | 2.02 µM |
| COc1cc(-c2nccc3cc(OC)c(OC)cc23)ccc1O |  | 91.8 µM |  | > 100 µM |  | > 100 µM |  | > 100 µM |  | > 100 µM |  | > 100 µM |  | > 100 µM |  | > 100 µM |  | > 100 µM |  | > 100 µM |
| C=C1CC2(CC(c3ccccc3Cl)OC(c3ccccc3Cl)C2)OC1=O (centres undefined) |  | 6.19 µM |  | 7.56 µM |  | 9.03 µM |  | 14.2 µM |  | 15.2 µM |  | 7.74 µM |  | 3.3 µM |  | 9.82 µM |  | 10.1 µM |  | 4.68 µM |
| CSCS(=O)C[C@H](CO)NC(=O)/C=C/c1c(C)[nH]c(=O)[nH]c1=O (some centres undefined) |  | 6.73 µM and 5.09 µM | 1.95 µM | 7.6 µM and 3.98 µM | 1.84 µM | 4.95 µM and 2.47 µM |  | 22.8 µM | 3.3 µM | 12.7 µM and 4.98 µM | 2.5 µM | 6.27 µM and 4.1 µM | 1.35 µM | 3.3 µM and 2.36 µM |  | 6.86 µM | 1.46 µM | 8.69 µM and 4.02 µM | 1.39 µM | 4.56 µM and 3.44 µM |
| COC1C(O)CC(OC2CC(OC3CC(O[C@@H]4C(=O)c5c(cc6cc(OC7CC(OC8CC(O)C(O)C(C)O8)C(O)C(C)O7)c(C)c(O)c6c5O)CC4[C@H](OC)C(=O)O)OC(C)C3O)OC(C)C2O)OC1C (some centres undefined) | 2.08 µM | > 33.3 µM | 1.89 µM | > 33.3 µM | 1.63 µM | 17.2 µM | 0.922 µM | > 33.3 µM | 2.31 µM | > 33.3 µM | 3.1 µM | 20 µM | 1.7 µM | > 33.3 µM | 1.09 µM | > 33.3 µM | 3.57 µM | > 33.3 µM | 0.842 µM | 2.54 µM |
| Cc1c2ccn(O)cc2c(C)c2c1nc1ccccc12 |  | 16.8 µM |  | > 100 µM |  | 30.2 µM |  | 15.2 µM |  | > 71.3 µM |  | 98.5 µM |  | 22.3 µM |  | > 85.7 µM |  | > 60.1 µM |  | 41.6 µM |
| COC(=O)c1ccccc1N(C(=O)c1ccccc1)c1ccccc1C |  | 54.6 µM |  | > 100 µM |  | 79.3 µM |  | 99.4 µM |  | > 100 µM |  | > 100 µM |  | 86.1 µM |  | > 100 µM |  | 83.5 µM |  | > 100 µM |
| COc1cccc(/C=C/C(=O)c2ccc(SC)cc2)c1OC | 8.11 µM | 61.6 µM | 16.6 µM | 33.4 µM | 14.6 µM | 28.2 µM | 4.43 µM | 79.5 µM | 18.8 µM | 35.6 µM | 16.8 µM | 30.4 µM | 19.2 µM | 38.9 µM | 17.2 µM | 33.7 µM | 14.2 µM | 97.5 µM | 10.8 µM | 23.8 µM |
| NC(N)=NCC1CCCCCCN1 (centres undefined) |  | > 100 µM |  | > 100 µM |  | > 100 µM |  | > 100 µM |  | > 100 µM |  | > 100 µM |  | > 100 µM |  | > 100 µM |  | > 100 µM |  | > 100 µM |
| Oc1ccc(O)c(-c2cn3c(n2)SCC3)c1 | 4.37 µM | 9.55 µM | 16.9 µM | 38.2 µM | 24.4 µM | 73.4 µM | 4.03 µM | 10.4 µM | 19.5 µM | 37.3 µM | 19.6 µM | 36.2 µM | 4.93 µM | > 100 µM | 20.4 µM | 34.7 µM | 5.18 µM | > 100 µM | 11.2 µM | 24.7 µM |
| CO[C@@H]1C=C[C@@]23c4cc5c(cc4CN(C[C@@H]2O)[C@H]3C1)OCO5 |  | 69.5 µM |  | > 100 µM |  | > 100 µM |  | 77.6 µM |  | > 100 µM |  | 56.6 µM |  | 50.7 µM |  | > 100 µM |  | 47.7 µM |  | 64.2 µM |
| Cc1c(O)c(N=Nc2nc3ccccc3s2)c2ccccc2c1O | > 50 µM | > 50 µM | 23.2 µM | > 50 µM | 13.9 µM | > 50 µM | > 50 µM | > 50 µM | 13.3 µM | > 50 µM | > 50 µM | > 50 µM | 19.1 µM | 46.6 µM | 19.4 µM | > 50 µM | > 50 µM | > 50 µM | 15.3 µM | > 50 µM |
| O=C1/C(=C/c2ccccc2)CN(C(=O)C(Cl)Cl)C/C1=C\c1ccccc1 | 0.369 µM |  | 0.267 µM | 0.845 µM | 0.822 µM | 2.73 µM | 0.11 µM |  | 0.894 µM | 3.06 µM | 0.703 µM | 1.98 µM | 1.08 µM | 2.69 µM | 0.438 µM | 1.44 µM | 0.152 µM |  | 0.702 µM | 2 µM |
| COC(OC)c1cc2c(cc1C=O)OCO2 |  | > 100 µM |  | > 100 µM |  | > 100 µM |  | > 100 µM |  | > 100 µM |  | > 100 µM |  | > 100 µM |  | > 100 µM |  | > 100 µM |  | > 100 µM |
| CC(=O)O[C@H]([C@H](OC(C)=O)[C@H](C)OC(C)=O)[C@@H](/C=C/[C@@H]1CC=CC(=O)O1)OC(C)=O | > 100 µM | > 100 µM | > 100 µM | > 100 µM | 35.6 µM | > 100 µM | 77.5 µM | > 100 µM | > 100 µM | > 100 µM | 29 µM | 77.2 µM | 2.05 µM | 4.73 µM | > 100 µM | > 100 µM | 41.5 µM | > 100 µM | > 100 µM | > 100 µM |

Reference: PubChem BioAssay (NCI)
